# Measurements from US4999372A, “New aminochromanol compounds” (ADIR et Compagnie, priority 1988, dated 1991).
# Where two headings read alike, the source gives them in different places.
# How the values were obtained:
# guinea pig = assay: Bronchospasm produced by a histamine aerosol at 4%, compound i.v.; assay type: in vivo; settings: 0.30 mg/kg i.v.
# Method: The bronchodilating activity has been studied in the guinea pig by the method of H. KONZETT and R. ROSSLER, Arch. Exp. Path. U. Pharm. 195, 71 (1940).
# For example, the bronchospasm produced in the guinea pig by a histamine aerosol et 4% is inhibited of 96% by the compound of Example 1 B form, at the dose of 0.30 mg/kg i.v., and of 100% by the compound of Example 24 B form, at the dose of 0.35 mg/kg i.v.
# [1] = tested on: conscious renally hypertensive dog; assay: Arterial pressure in the conscious renally hypertensive dog; assay type: in vivo; settings: gastric intubation, 0.1 mg/kg
# Method: Mongrel dogs weighing from 20 to 25 kg are used. A silastic catheter positioned under anaesthesia (sodium pentobarbital 30 mg/kg i.v.) at the level of the abdominal aorta and left over a prolonged period permits the later measurement of the arterial pressure in the conscious animals. Arterial hypertension is induced by a second intervention under anaesthesia consisting in a constriction of the left renal artery using a clip, which reduces its rate of flow by approximately 70%, the left kidney is enveloped in a latex capsule and the contralateral kidney is left in place.
# The systolic and diastolic arterial pressures (PAS and PAD) are measured using a STATHAM P23 pressure sensor connected to the silastic catheter and linked to a GOULD pressure amplifier. The products are tested on the animals, which have become hypertensive, in the conscious state, at least one week after the second intervention. The arterial pressure is monitored continuously on an ES1000 GOULD recorder until 7 hours have elapsed after the treatment and then until 24 hours have elapsed.
# The products to be tested are administered via the digestive system, after gastric intubation, in a form dissolved in water or a suitable solvent. The doses administered are expressed in mg of base with respect to body weight.
# The representative products of the invention were compared with the reference product (CROMAKALIM). The variations in the systolic and diastolic arterial pressures (PAS and PAD), presented at the most significant times after treatment, are expressed as percentage variation with respect to the control values.
# aorta of the rat [2] = assay: Relaxation of rat aortic rings contracted by potassium depolarisation (KCl); assay type: cell-based; settings: rat aorta rings without endothelium
# Method: (§1) Male Wistar rats (325-375 g) are anaesthetised i.p. using sodium pentobarbital (30 mg/kg). The thoracic aorta and the mesenteric portal vein are removed. The aorta is dissected into rings 3 mm long and the endothelium is removed mechanically.
# (§2) The organs are placed in a 20 ml thermostatically controlled vessel containing a physiological solution composed of (mM): NaCl 112; KCl 5; KH2 PO4 1; MgSO4 1.2; CaCl2 2.5; NaHCO3 25; glucose 11.5; EDTA 0.1; pH: 7.4; 37° C.; 95% O2 +5% CO2.
# (§3) The initial force applied is 2 g in the case of the aorta and 0.5 g in the case of the portal vein. The variations in force are measured by a STATHAM sensor connected to a transducer amplifier (GOULD) and are monitored continuously on a GOULD 2400 graphic recorder.
# (§4) The experimental protocols are as follows: After a stabilisation period of 90 minutes, the aortic rings are subjected to various tests:
# potassium depolarisation:
# The preparations are exposed to a 30 mM or 80 mM KCl (and 87 and 37 mM NaCl, respectively) hyperpotassium medium; after 30 minutes' stabilisation of contraction, cumulative concentrations of the product to be tested are added every 15 minutes. The relaxation values obtained allow the IC50 s to be calculated.
# (§5) The products are used in a form dissolved in water or a suitable solvent.
# (§6) The concentrations expressed refer to the final concentrations in terms of base in the isolated organ baths.
# aorta of the rat [3] = assay: Reactivity of rat aortic rings to 4-aminopyridine (4 AP); assay type: cell-based; settings: 4 AP 5 mM
# Method: as §1, §2, §3, §4
# reactivity to 4-aminopyridine (4 AP)
# The product to be tested, at a given concentration, or its solvent, is incubated in the normal physiological solution 15 minutes before the addition of the 4 AP (5 mM).
# The maximum amplitudes of the responses to the 4 AP in the presence of the product or the solvent are compared.
# as §5, §6
# [4] = tested on: spontaneously hypertensive rat (SHR); assay: Arterial pressure in the conscious spontaneously hypertensive rat (SHR), oral; assay type: in vivo
# Method: The study is carried out on SHR male rats (Charles River) weighing from 260 g to 330 g and aged from 18 to 20 weeks. A polyethylene catheter is positioned at the level of the abdominal aorta and tunnelised at the level of the neck under anaesthesia (ketamine hydrochloride 150 mg/kg intraperitoneally). The animals, placed in movement-restraining cages, are tested in the conscious state at least 48 hours after intervention. The arterial pressure, measured by a STATHAM P23 pressure sensor connected to the abdominal catheter, is registered on a GOULD 2400 recorder. […] The doses administered are expressed in mg/kg of base.
# The results obtained with a certain number of representative products of the invention and a reference product, CROMAKALIM, are grouped in the following Table. The variations in systolic and diastolic arterial pressure (PAS and PAD) presented at the most significant times after treatment are expressed as percentage variation with respect to the control values.
# anaesthetised dog = assay: Haemodynamic study in the anaesthetised dog (vascular resistances), i.v.; assay type: in vivo; settings: 10 μg/kg
# Method: A complete haemodynamic study was carried out on mongrel dogs weighing from 25 to 30 kg, which were anaesthetised with sodium pentobarbital 30 mg/kg i.v., intubated and ventilated and subjected to a thoracotomy at the 5th left intercostal space. The measurement of the […] is carried out using electromagnetic rings positioned at the level of the ascending aorta and the circumflex branch of the left coronary artery, respectively, and connected to GOULD SP 2202 electromagnetic flow meters. The aortic pressure is measured by a MILLAR probe introduced via the femoral artery.
# The total peripheral vascular resistance values (TPR) and the mean coronary vascular resistance values (CVRM) are calculated by the ratio between the mean aortic pressure and the mean cardiac output and the mean coronary output, respectively. The products tested were injected via the femoral vein in a form dissolved in water or a suitable solvent.
# The evolution of the vascular resistances, expressed as percentage variation with respect to the control values, is presented as a function of time in the following Table.
compound,measurement,setting,value
"CC1(C)Oc2ccc(C#N)cc2C(N2C(=O)CC[C@H]2CO)C1O (single isomer, unassigned) [Example 1 form B, 3R,4S- or 3S,4R-trans-2,2-dimethyl-3-hydroxy-4-(2-oxo-5S-hydroxymethyl-1-pyrrolidinyl)-6-cyanochroman]",Inhibition of the bronchospasm produced by a histamine aerosol at 4%,guinea pig,96%
same,Variation (%) of PAD after treatment,[1]; 1 H,+5%
same,Variation (%) of PAS after treatment,[1]; 1 H,+2%
same,Variation (%) of PAD after treatment,[1]; 3 H,-50%
same,Variation (%) of PAS after treatment,[1]; 3 H,-55%
same,Variation (%) of PAD after treatment,[1]; 7 H,-68%
same,Variation (%) of PAS after treatment,[1]; 7 H,-76%
same,Variation (%) of PAD after treatment,[1]; 24 H,-27%
same,Variation (%) of PAS after treatment,[1]; 24 H,-24%
same,Variation (%) of PAD after treatment,[1]; 30 min,0%
same,Variation (%) of PAS after treatment,[1]; 30 min,0%
same,IC50,"aorta of the rat [2]; 30 mM KCl, listed as Ex. 1 Form B, read-out: IC50 (M) KCl 30 mM",3.4e-07 M
same,IC50,"aorta of the rat [2]; 80 mM KCl, read-out: IC50 (M) KCl 80 mM",> 0.0001 M
same,% inhibition of the response to 4AP,aorta of the rat [3]; product 3 × 10^-6 M,18%
same,% inhibition of the response to 4AP,"aorta of the rat [3]; product 10^-5 M, listed as Ex. 1 Form B",77%
same,Variation (%) of PAD after treatment,"[4]; 0.3 mg/kg, 1 H",-36 ± 4%
same,Variation (%) of PAS after treatment,"[4]; 0.3 mg/kg, 1 H",-27 ± 4%
same,Variation (%) of PAD after treatment,"[4]; 0.3 mg/kg, 3 H",-35 ± 4%
same,Variation (%) of PAS after treatment,"[4]; 0.3 mg/kg, 3 H",-25 ± 3%
same,Variation (%) of PAD after treatment,"[4]; 0.3 mg/kg, 6 H",-40 ± 4%
same,Variation (%) of PAD after treatment,"[4]; 0.3 mg/kg, 30 min",-34 ± 6%
same,Variation (%) of PAS after treatment,"[4]; 0.3 mg/kg, 30 min",-27 ± 5%
same,Variation (%) of PAD after treatment,"[4]; 1.0 mg/kg, 1 H",-54 ± 2%
same,Variation (%) of PAS after treatment,"[4]; 1.0 mg/kg, 1 H",-44 ± 1%
same,Variation (%) of PAD after treatment,"[4]; 1.0 mg/kg, 3 H",-46 ± 6%
same,Variation (%) of PAS after treatment,"[4]; 1.0 mg/kg, 3 H",-40 ± 2%
same,Variation (%) of PAD after treatment,"[4]; 1.0 mg/kg, 6 H",-46 ± 4%
same,Variation (%) of PAS after treatment,"[4]; 1.0 mg/kg, 6 H",-36 ± 3%
same,Variation (%) of PAD after treatment,"[4]; 1.0 mg/kg, 30 min",-48 ± 5%
same,Variation (%) of PAS after treatment,"[4]; 1.0 mg/kg, 30 min",-42 ± 2%
same,Variation (%) of CVRM after treatment,anaesthetised dog; 1 min,-69.4%
same,Variation (%) of TPR after treatment,anaesthetised dog; 1 min,-45.9%
same,Variation (%) of CVRM after treatment,anaesthetised dog; 10 min,-62.0%
same,Variation (%) of TPR after treatment,anaesthetised dog; 10 min,-35.1%
same,Variation (%) of CVRM after treatment,anaesthetised dog; 30 min,-43.7%
same,Variation (%) of TPR after treatment,anaesthetised dog; 30 min,-35.1%
